Test results: patent US20240217968A1, “PHARMACEUTICAL COMPOUND” (DUKE STREET BIO LIMITED, priority 2021, published 2024)
pIC50: −log10 of the molar value.

target: T1, recombinant human Flag-tagged PARP7 (amino acids 456-657) (Homo sapiens, UniProt Q7Z3E1); experiment: PARP7 biochemical DELFIA assay (auto-MARylation); settings: DELFIA readout, IC50 class
T1 construct: recombinant human Flag-tagged PARP7 (amino acids 456-657)
T1 sequence (Q7Z3E1 456-657): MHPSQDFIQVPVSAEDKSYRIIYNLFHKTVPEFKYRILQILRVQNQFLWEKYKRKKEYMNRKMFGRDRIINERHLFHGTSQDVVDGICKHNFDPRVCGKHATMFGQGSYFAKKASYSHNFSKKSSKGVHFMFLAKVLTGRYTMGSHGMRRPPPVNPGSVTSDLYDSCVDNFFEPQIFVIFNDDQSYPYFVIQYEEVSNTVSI
Method in brief: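 Flag-PARP7 (456-657), 12.5-37.5 nM stock, captured on anti-FLAG wells, preincubated 30 min with compound, then auto-MARylated with biotin-NAD+ (15 μM stock) in HEPES pH 7.5/NaCl/DTT/BSA/Tween for 2-3 h at room temperature. NAD+ quench; Eu-streptavidin DELFIA read, Ex337/Em620 nm.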

SMILES	pIC50
O=C(CCOCCn1ncc2c(=O)[nH]ncc21)N1CCN(c2ccc(Cl)cn2)CC1 [Compound 133]	≥ 7.00
Cc1cc(CCOCCC(=O)N2CCN(c3ncc(C(F)(F)F)cn3)CC2)n2c1C(=O)NCC2 [Compound 134]	≥ 7.00
COCc1cc2c(=O)[nH]ncc2n1CCOCCC(=O)N1CCN(c2ncc(C(F)(F)F)cn2)CC1 [Compound 135]	6.00 to 7.00
NCc1cc2c(=O)[nH]ncc2n1CCOCCC(=O)N1CCN(c2ncc(C(F)(F)F)cn2)CC1 [Compound 136]	6.00 to 7.00
CC1CN(C(=O)CCOCCn2ncc3c(=O)[nH]ncc32)CCN1c1ncc(C(F)(F)F)cn1 (centres unmarked) [Compound 137]	≥ 7.00
CC1CN(C(=O)CCOCCn2ncc3c(=O)[nH]ncc32)CCN1c1ncc(C(F)(F)F)cn1 (centres unmarked) [Compound 138]	≥ 7.00
O=C(CCOCCc1cccc2c(=O)[nH]ncc12)N1CCC(c2nc3ccccc3o2)CC1 [Compound 139]	≥ 7.00
O=C(CCOCCc1cccc2c(=O)[nH]ncc12)N1CCC(c2nc3ccccc3s2)CC1 [Compound 140]	≥ 7.00
O=C(CCOCCc1cccc2c(=O)[nH]ncc12)N1CCN(c2nc3ccccc3s2)CC1 [Compound 141]	≥ 7.00
CC1CN(c2ncc(C(F)(F)F)cn2)CCN1C(=O)CCOCCn1ncc2c(=O)[nH]ncc21 (centres unmarked) [Compound 142]	≥ 7.00
CC1CN(c2ncc(C(F)(F)F)cn2)CCN1C(=O)CCOCCn1ncc2c(=O)[nH]ncc21 (centres unmarked) [Compound 143]	≥ 7.00
O=C(CCOCCc1csc2c(=O)[nH]c(=O)[nH]c12)N1CCN(c2ncc(C(F)(F)F)cn2)CC1 [Compound 144]	≥ 7.00
O=C1NCCCc2c(CCOCCC(=O)N3CCN(c4ncc(C(F)(F)F)cn4)CC3)cccc21 [Compound 145]	5.00 to 6.00
O=C(CCOCCc1cccc2c(=O)[nH]ncc12)N1CCN(c2nc3ccccc3o2)CC1 [Compound 146]	≥ 7.00
O=C(CCOCCn1ncc2c(=O)[nH]ncc21)N1CCN(c2ncc(Cl)cn2)CC1 [Compound 147]	≥ 7.00
O=C(CCOCCc1cccc2c(=O)[nH]ncc12)N1CCN(c2ncc(C(F)(F)F)cn2)C(CO)C1 (centres unmarked) [Compound 148]	≥ 7.00
CC(C)c1cn(CCOCCC(=O)N2CCN(c3ncc(C(F)(F)F)cn3)CC2)c2cn[nH]c(=O)c12 [Compound 150]	≥ 7.00
Cc1cn(C(C)COCCC(=O)N2CCN(c3ncc(C(F)(F)F)cn3)CC2)c2cn[nH]c(=O)c12 (centres unmarked) [Compound 152]	≥ 7.00
O=C(CCOCCn1nc(C(F)(F)F)c2c(=O)[nH]ncc21)N1CCN(c2ncc(C(F)(F)F)cn2)CC1 [Compound 153, 1-(2-(3-oxo-3-(4-(5-(trifluoromethyl)pyrimidin-2-yl)piperazin-1-yl)propoxy)ethyl)-3-(trifluoromethyl)-1,5-dihydro-4H-pyrazolo[3,4-d]pyridazin-4-one]	≥ 7.00
CC(C)c1nn(CCOCCC(=O)N2CCN(c3ncc(C(F)(F)F)cn3)CC2)c2cn[nH]c(=O)c12 [Compound 154]	≥ 7.00
CC(COCCn1ncc2c(=O)[nH]ncc21)C(=O)N1CCN(c2ncc(C(F)(F)F)cn2)CC1 (centres unmarked) [Compound 155]	≥ 7.00
CC(COCCn1ncc2c(=O)[nH]ncc21)C(=O)N1CCN(c2ncc(C(F)(F)F)cn2)CC1 (centres unmarked) [Compound 156]	6.00 to 7.00

SMILES	pIC50
O=C(CCOCCN1C(=O)CCc2c1cn[nH]c2=O)N1CCN(c2ncc(C(F)(F)F)cn2)CC1 [Compound 157]	≥ 7.00
O=C(CCOCCc1ccc(F)c2c(=O)[nH]ncc12)N1CCN(c2ncc(C(F)(F)F)cn2)CC1 [Compound 158]	≥ 7.00
Nc1nc(N2CCN(C(=O)CCOCCc3cccc4c(=O)[nH]ncc34)CC2)ncc1C(F)(F)F [Compound 159]	6.00 to 7.00
CC1CN(c2ncc(C(F)(F)F)cn2)CCN1C(=O)CCOCCn1nc(C(F)(F)F)c2c(=O)[nH]ncc21 (centres unmarked) [Compound 160]	≥ 7.00
CC1CN(c2ncc(C(F)(F)F)cn2)CCN1C(=O)CCOCCn1nc(C(F)(F)F)c2c(=O)[nH]ncc21 (centres unmarked) [Compound 161]	≥ 7.00
CC(COCCC(=O)N1CCN(c2ncc(C(F)(F)F)cn2)CC1)c1cc(Cl)cc2c(=O)[nH]ncc12 (centres unmarked) [Compound 162]	6.00 to 7.00
CC(COCCC(=O)N1CCN(c2ncc(C(F)(F)F)cn2)CC1)c1cc(Cl)cc2c(=O)[nH]ncc12 (centres unmarked) [Compound 163]	≥ 7.00
CCc1cn(CCOCCC(=O)N2CCN(c3ncc(C(F)(F)F)cn3)CC2)c2cn[nH]c(=O)c12 [Compound 164]	≥ 7.00
O=C(OCCCCc1cccc2c(=O)[nH]ncc12)N1CCN(c2ncc(C(F)(F)F)cn2)CC1 [Compound 165]	≥ 7.00
CN(CCCC(=O)N1CCN(c2ncc(C(F)(F)F)cn2)CC1)Cc1cccc2c(=O)[nH]ncc12 [Compound 167]	6.00 to 7.00
CC(COCCC(=O)N1CCN(c2ncc(C(F)(F)F)cn2)CC1)n1ncc2c(=O)[nH]ncc21 (centres unmarked) [Compound 168]	≥ 7.00
CC(COCCC(=O)N1CCN(c2ncc(C(F)(F)F)cn2)CC1)n1ncc2c(=O)[nH]ncc21 (centres unmarked) [Compound 169]	6.00 to 7.00
Cc1nc2c(=O)[nH]ncc2n1CCOCCC(=O)N1CCN(c2ncc(C(F)(F)F)cn2)CC1 [Compound 170]	6.00 to 7.00
O=C(CCOCCn1nc(C(F)(F)F)c2c(=O)[nH]ncc21)N1CCN(c2nc3cc(Cl)ccc3o2)CC1 [Compound 171]	≥ 7.00
O=C(CCOCCc1cccc2c(=O)[nH]ncc12)N1CCN(c2nc3cc(Cl)ccc3o2)CC1 [Compound 172]	≥ 7.00
CC1(C)CN(C(=O)CCOCCn2nc(C(F)(F)F)c3c(=O)[nH]ncc32)CCN1c1ccc(C(F)(F)F)cn1 [Compound 173]	≥ 7.00
CC(COCCC(=O)N1CCN(c2ccc(C(F)(F)F)cn2)CC1)n1nc(C(F)(F)F)c2c(=O)[nH]ncc21 (centres unmarked) [Compound 178]	≥ 7.00
CC(COCCC(=O)N1CCN(c2ccc(C(F)(F)F)cn2)CC1)n1nc(C(F)(F)F)c2c(=O)[nH]ncc21 (centres unmarked) [Compound 179]	≥ 7.00
O=C(CCOCCc1cccc2c(=O)[nH]ncc12)N1CCN(c2nc3ccc(F)cc3o2)CC1 [Compound 180]	≥ 7.00
CC1(C)CN(C(=O)CCOCCn2nc(C(F)(F)F)c3c(=O)[nH]ncc32)CCN1c1ncc(C(F)(F)F)cn1 [Compound 182]	≥ 7.00
O=C(CCOCCn1nc(C(F)(F)F)c2c(=O)[nH]ncc21)N1CCN(c2nc3ccc(F)cc3o2)CC1 [Compound 183]	≥ 7.00
O=C(CCOCCn1c(C(F)(F)F)nc2c(=O)[nH]ncc21)N1CCN(c2ncc(C(F)(F)F)cn2)CC1 [Compound 184]	6.00 to 7.00

SMILES	pIC50
CC(COCCC(=O)N1CCN(c2ncc(Cl)cn2)CC1)n1nc(C(F)(F)F)c2c(=O)[nH]ncc21 (centres unmarked) [Compound 186]	≥ 7.00
O=C(CCOCCn1nc(C(F)(F)F)c2c(=O)[nH]ncc21)N1CCN(c2nc3ccc(Cl)cc3o2)CC1 [Compound 191]	≥ 7.00
N#Cc1ccc2nc(N3CCN(C(=O)CCOCCc4cccc5c(=O)[nH]ncc45)CC3)oc2c1 [Compound 192]	≥ 7.00
CC1(C)CN(c2ncc(C(F)(F)F)cn2)CCN1C(=O)CCOCCn1nc(C(F)(F)F)c2c(=O)[nH]ncc21 [Compound 193]	≥ 7.00
Cn1c(N2CCN(C(=O)CCOCCn3nc(C(F)(F)F)c4c(=O)[nH]ncc43)CC2)nc2ccccc21 [Compound 195]	≥ 7.00
N#Cc1ccc2oc(N3CCN(C(=O)CCOCCn4nc(C(F)(F)F)c5c(=O)[nH]ncc54)CC3)nc2c1 [Compound 196]	≥ 7.00
O=C(CCOCCc1cccc2c(=O)[nH]ncc12)N1CCC(Oc2ccccc2)CC1 [Compound 197]	6.00 to 7.00
O=C(CCOCCn1cc(C(F)F)c2c(=O)[nH]ncc21)N1CCN(c2ncc(C(F)(F)F)cn2)CC1 [Compound 198]	≥ 7.00
O=C(CCOCCc1cccc2c(=O)[nH]ncc12)N1CCN(c2nc3cc(F)ccc3o2)CC1 [Compound 199]	≥ 7.00
O=C(CCOCCn1cc(C(F)F)c2c(=O)[nH]ncc21)N1CCN(c2ccc(C(F)(F)F)cn2)CC1 [Compound 200]	≥ 7.00
CC(COCCn1nc(C(F)(F)F)c2c(=O)[nH]ncc21)C(=O)N1CCN(c2ncc(C(F)(F)F)cn2)CC1 (centres unmarked) [Compound 201]	≥ 7.00
CC(COCCn1nc(C(F)(F)F)c2c(=O)[nH]ncc21)C(=O)N1CCN(c2ncc(C(F)(F)F)cn2)CC1 (centres unmarked) [Compound 202]	≥ 7.00
CCn1cc(CCOCCC(=O)N2CCN(c3ncc(C(F)(F)F)cn3)CC2)c2cn[nH]c(=O)c21 [Compound 203, 1-ethyl-3-(2-(3-oxo-3-(4-(5-(trifluoromethyl)pyrimidin-2-yl)piperazin-1-yl)propoxy)ethyl)-1,6-dihydro-7H-pyrrolo[2,3-d]pyridazin-7-one]	≥ 7.00
N#Cc1ccc(N2CCN(C(=O)c3cccc(Cc4cccc5c4CCCNC5=O)c3)CC2)nc1 [Compound 204]	6.00 to 7.00
O=C(CCOCCc1cccc2c(=O)[nH]ncc12)N1CCN(c2nc3ccc(Cl)cc3o2)CC1 [Compound 205]	≥ 7.00
CC(COCCc1cccc2c(=O)[nH]ncc12)C(=O)N1CCN(c2ncc(C(F)(F)F)cn2)CC1 (centres unmarked) [Compound 206]	≥ 7.00
O=C(CCOCCc1cccc2c(=O)[nH]ncc12)N1CCN(c2ccc(C(F)(F)F)cc2)C(=O)C1 [Compound 207]	6.00 to 7.00
N#Cc1ccc2oc(N3CCN(C(=O)CCOCCc4cccc5c(=O)[nH]ncc45)CC3)nc2c1 [Compound 208]	≥ 7.00
CCC(OCCCC(=O)N1CCN(c2ncc(C(F)(F)F)cn2)CC1)c1cccc2c(=O)[nH]ncc12 (centres unmarked) [Compound 209]	≥ 7.00
CC(COCCC(=O)N1CCN(c2ccc(Cl)cn2)CC1)n1nc(C(F)(F)F)c2c(=O)[nH]ncc21 (centres unmarked) [Compound 211]	≥ 7.00
CC(COCCC(=O)N1CCN(c2ccc(Cl)cn2)CC1)n1nc(C(F)(F)F)c2c(=O)[nH]ncc21 (centres unmarked) [Compound 212]	≥ 7.00
